Data published in patent US20240059729A1, “MULTIFUNCTIONAL CYCLIC DINUCLEOTIDE AND USE THEREOF” (TYLIGAND BIOSCIENCE (SHANGHAI) LIMITED, priority 2020, published 2024).
Structures can show the parent of a compound that is named as a salt.

Test: Hepatocyte metabolic stability assay
Assay type: in vitro ADME
Details: 5 species of hepatocytes (mouse, rat, dog, monkey, human); FIG. 4A
Text: The compounds of the invention were similarly tested for hepatocyte metabolic stability in 5 species (mouse, rat, dog, monkey, human) according to standard methods of in vitro metabolic stability studies conventional in the art, for example (Kems, Edward H. and Di Li (2008). Drug-like Properties: Concepts, Structure Design and Methods: From ADME to Toxicity Optimization, San Diego: Academic Press; Di, Li et al, Optimization of a High Throughput Microsomal Stability Screening Assay for Profiling Drug Discovery Candidates, J Biomol Screen. 2003, 8(4), 453).
The hepatocytes used in the experiment: human hepatocytes (SHQY, Lot #HEP190006), dog hepatocytes (IVT, Lot #ZMB); monkey hepatocytes (Xenotech, Lot #2010022), rat hepatocytes (SHQY, Lot #HEP134045), and mouse hepatocytes (BioIVT, Cat. #M005052, Lot. #MEO).
Cryopreserved hepatocyte tubes were removed from a liquid nitrogen tank and immediately placed ill in a shaking water bath at 37±1° C. for 2 minutes±15 seconds. […] The supernatant was aspirated without touching the cell pellet, and cell viability and number were determined. The hepatocytes were counted and then the cell suspension was diluted in KHB buffer to the appropriate density (viable cell density=2×10^6 cells/mL). […]

Structure (SMILES): Nc1nc2c(ncn2[C@@H]2O[C@@H]3CO[P@@](=O)(S)OC4C(F)[C@H](n5cnc6c(N)nc(Cl)nc65)O[C@@H]4CO[P@@](=O)(S)OC2C3O)c(=O)[nH]1 (stereo partly drawn) [Example 10, (2′,3′)-cyclo-(Rp,Rp)-[2′-O-phosphorothioate-diester-guanosine]-[3′-O-phosphorothioate-diester-2-chloro-2′-deoxy-2′-fluoro-beta-adenosine] diammonium salt]
- Hepatocyte metabolic stability (in words): good metabolic stability
